Values quoted from earlier work as cited in US10273546B2, “Method and composition for diagnosis or treatment of aggressive prostate cancer” (The Trustees of Columbia University in the City of New York, priority 2014, dated 2019).

Tests used:
[1] = human, in vivo
Apo-B = settings: animal models

Substance: Mipomersen
- toxic effects [1]: relatively mild
- repression of target apo-B expression (Apo-B): robust and prolonged repression
